Data set [1] deals with Mus musculus. Kind of data set: Anticonvulsant activity in ip dosed pentylenetetrazole induced seizure mouse model assessed as no observable episode of clonic convulsion of at least 5 secs by measuring time to peak effect. It is filed as functional.
In a further data set the test system is Rattus norvegicus. Kind of data set: Anticonvulsant activity in po dosed maximal electroshock induced seizure Sprague-Dawley rat model assessed as suppression in hindlimb tonic extension by measuring time to peak effect. It is filed as functional. A general note: Protection in the maximal electroshock model is a classic sign of anticonvulsant action.
Data set [2] concerns the target T1, Galanin receptor type 1 (Homo sapiens) (UniProt P47211).
T1 sequence (whole entry): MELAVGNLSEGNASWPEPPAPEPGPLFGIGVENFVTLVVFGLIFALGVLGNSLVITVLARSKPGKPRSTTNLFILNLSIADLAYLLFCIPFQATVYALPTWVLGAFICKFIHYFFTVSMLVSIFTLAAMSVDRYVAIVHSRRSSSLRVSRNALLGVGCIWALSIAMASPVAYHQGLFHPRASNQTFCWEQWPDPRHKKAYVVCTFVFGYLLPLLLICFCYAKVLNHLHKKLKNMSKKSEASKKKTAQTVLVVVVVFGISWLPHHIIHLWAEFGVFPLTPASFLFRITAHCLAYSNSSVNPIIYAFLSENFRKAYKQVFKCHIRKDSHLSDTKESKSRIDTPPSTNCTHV
Kind of data set: Displacement of [125I]galanin from human recombinant GAL1 receptor expressed in HEK293 cells at 100 uM measured after 60 mins by scintillation counting method relative to control. It is filed as cell-based.

Data set [3] concerns Mus musculus. The data set can be described thus: Anticonvulsant activity in ip dosed 6-Hz induced seizure mouse model assessed as restoration of normal activity within 10 secs from stimulation by measuring time to peak effect at 44 mA. It is filed as functional.
Data set [4] concerns the target Sodium-dependent serotonin transporter (Homo sapiens) (UniProt P31645). Kind of data set: Displacement of [3H]imipramine from human recombinant 5HT transporter expressed in CHO cells at 100 uM measured after 60 mins by scintillation counting method relative to control. It is filed as cell-based.
Data set [5] addresses 5-hydroxytryptamine receptor 2A (Homo sapiens) (UniProt P28223). The data set can be described thus: Displacement of [3H]ketanserin from human recombinant 5HT2A receptor expressed in HEK293 cells at 100 uM measured after 60 mins by scintillation counting method relative to control. It is filed as cell-based. A general note: Displacement assays read how much labelled ligand stays bound in the presence of the test substance.

The subject of data set [6] is Mus musculus. Kind of data set: Anticonvulsant activity in ip dosed 6-Hz induced seizure mouse model assessed as restoration of normal activity within 10 secs from stimulation at 44 mA. It is filed as functional.
Data set [7] concerns the target Mu-type opioid receptor (Homo sapiens) (UniProt P35372). Kind of data set: Displacement of [3H]DAMGO from human recombinant mu-opioid receptor expressed in HEK293 cells at 100 uM measured after 120 mins by scintillation counting method relative to control. It is filed as cell-based.
Data set [8] addresses D(3) dopamine receptor (Homo sapiens) (UniProt P35462). The data set can be described thus: Displacement of [3H]methyl-spiperone from human recombinant dopamine D3 receptor expressed in CHO cells at 100 uM measured after 60 mins by scintillation counting method relative to control. It is filed as cell-based.
For data set [9], the target named is T2, Substance-K receptor (Homo sapiens) (UniProt P21452).
T2 sequence (whole entry): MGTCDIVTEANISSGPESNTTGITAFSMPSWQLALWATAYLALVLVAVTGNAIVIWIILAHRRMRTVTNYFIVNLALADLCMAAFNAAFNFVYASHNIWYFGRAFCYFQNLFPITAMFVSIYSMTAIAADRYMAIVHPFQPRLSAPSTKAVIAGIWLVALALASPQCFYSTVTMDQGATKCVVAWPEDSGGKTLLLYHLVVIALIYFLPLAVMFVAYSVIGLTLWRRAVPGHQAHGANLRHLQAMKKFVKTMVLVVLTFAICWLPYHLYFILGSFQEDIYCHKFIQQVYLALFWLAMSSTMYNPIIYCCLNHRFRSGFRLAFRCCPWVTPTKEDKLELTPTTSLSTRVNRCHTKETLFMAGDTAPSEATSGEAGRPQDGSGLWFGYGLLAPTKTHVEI
Kind of data set: Displacement of [125I]NKA from human recombinant NK2 receptor expressed in CHO cells at 100 uM measured after 60 mins by scintillation counting method relative to control. It is filed as cell-based.

Data set [10] is described as follows: Protection index, ratio of TD50 for neurotoxicity in ip dosed mouse to ED50 for ip dosed maximal electroshock induced seizure mouse model. It is filed as toxicity, organism-based. The note with it: in vivo, read-out: Ratio TD50/ED50.
A short description of data set [11]: Neurotoxicity in po dosed Sprague-Dawley rat assessed as behavioral change. It is filed as toxicity, organism-based. The conditions noted are these: in vivo.
The target in data set [12] is D(1B) dopamine receptor (Homo sapiens) (UniProt P21918). The data set can be described thus: Displacement of [3H]SCH 23390 from human recombinant D5 receptor expressed in GH4 cells at 100 uM measured after 60 mins by scintillation counting method relative to control. It is filed as cell-based.
For data set [13], the system named is Mus musculus. Kind of data set: Anticonvulsant activity in ip dosed 6-Hz induced seizure mouse model assessed as restoration of normal activity within 10 secs from stimulation at 32 mA. It is filed as functional.
The target of data set [14] is Prostacyclin receptor (Homo sapiens) (UniProt P43119). Kind of data set: Displacement of [3H]iloprost from human recombinant IP receptor expressed in HEK293 cells at 100 uM measured after 60 mins by scintillation counting method relative to control. It is filed as cell-based.
Data set [15] deals with Beta-2 adrenergic receptor (Homo sapiens) (UniProt P07550). Kind of data set: Displacement of [3H]CGP 12177 from human recombinant beta2 adrenergic receptor expressed in CHO cells at 100 uM measured after 120 mins by scintillation counting method relative to control. It is filed as cell-based.
Data set [16] deals with T3, Peroxisome proliferator-activated receptor gamma (Homo sapiens) (UniProt P37231).
T3 sequence (whole entry): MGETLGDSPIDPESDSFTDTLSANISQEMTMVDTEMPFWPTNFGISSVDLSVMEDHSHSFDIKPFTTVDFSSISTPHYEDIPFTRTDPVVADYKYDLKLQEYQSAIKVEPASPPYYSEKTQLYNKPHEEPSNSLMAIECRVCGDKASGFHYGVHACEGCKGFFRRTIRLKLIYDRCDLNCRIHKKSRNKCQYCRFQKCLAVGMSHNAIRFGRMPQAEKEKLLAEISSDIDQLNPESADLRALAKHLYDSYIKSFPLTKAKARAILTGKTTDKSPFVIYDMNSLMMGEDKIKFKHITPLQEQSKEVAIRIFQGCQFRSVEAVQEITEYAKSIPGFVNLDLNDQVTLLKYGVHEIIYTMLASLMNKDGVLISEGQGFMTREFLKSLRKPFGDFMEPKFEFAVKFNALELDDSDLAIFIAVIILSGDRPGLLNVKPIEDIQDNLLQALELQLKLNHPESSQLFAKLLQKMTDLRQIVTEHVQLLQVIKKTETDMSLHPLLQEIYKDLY
Kind of data set: Displacement of [3H]rosiglitazone from human recombinant PPAR-gamma receptor expressed in Escherichia coli at 100 uM measured after 120 mins by scintillation counting method relative to control.

The results in this text go back to ChEMBL document CHEMBL3875185, “Structure-anticonvulsant activity studies in the group of (E)-N-cinnamoyl aminoalkanols derivatives monosubstituted in phenyl ring with 4-Cl, 4-CH3 or 2-CH3” (Bioorg Med Chem, 2017).

Sequence of Prostacyclin receptor (Homo sapiens) (P43119 whole entry): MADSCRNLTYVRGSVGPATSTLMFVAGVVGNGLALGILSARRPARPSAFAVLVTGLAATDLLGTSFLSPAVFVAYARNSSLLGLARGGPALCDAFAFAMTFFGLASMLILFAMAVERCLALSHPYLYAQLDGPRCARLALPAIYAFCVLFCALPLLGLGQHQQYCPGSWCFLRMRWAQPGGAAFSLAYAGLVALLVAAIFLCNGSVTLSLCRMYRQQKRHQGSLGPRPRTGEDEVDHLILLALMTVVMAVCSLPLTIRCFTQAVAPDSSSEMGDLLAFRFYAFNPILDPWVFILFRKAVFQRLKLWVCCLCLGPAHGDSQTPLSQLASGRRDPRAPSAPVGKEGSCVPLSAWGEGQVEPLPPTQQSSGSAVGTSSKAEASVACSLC
Sequence of Sodium-dependent serotonin transporter (Homo sapiens) (P31645 whole entry, looked up): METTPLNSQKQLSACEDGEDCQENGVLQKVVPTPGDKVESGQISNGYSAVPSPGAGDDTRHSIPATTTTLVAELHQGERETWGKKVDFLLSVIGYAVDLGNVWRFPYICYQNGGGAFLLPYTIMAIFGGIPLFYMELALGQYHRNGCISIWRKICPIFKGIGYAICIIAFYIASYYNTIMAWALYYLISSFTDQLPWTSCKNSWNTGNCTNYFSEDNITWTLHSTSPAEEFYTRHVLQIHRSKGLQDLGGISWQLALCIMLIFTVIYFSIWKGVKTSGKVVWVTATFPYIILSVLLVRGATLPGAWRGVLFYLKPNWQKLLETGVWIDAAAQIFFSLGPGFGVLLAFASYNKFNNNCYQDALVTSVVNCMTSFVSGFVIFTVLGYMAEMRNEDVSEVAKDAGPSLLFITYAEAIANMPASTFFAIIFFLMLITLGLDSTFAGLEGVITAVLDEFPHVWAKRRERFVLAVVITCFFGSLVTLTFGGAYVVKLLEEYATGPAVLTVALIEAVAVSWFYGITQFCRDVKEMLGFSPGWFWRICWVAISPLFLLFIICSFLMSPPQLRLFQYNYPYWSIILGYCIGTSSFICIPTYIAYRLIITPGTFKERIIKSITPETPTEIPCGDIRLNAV
Sequence of D(3) dopamine receptor (Homo sapiens) (P35462 whole entry): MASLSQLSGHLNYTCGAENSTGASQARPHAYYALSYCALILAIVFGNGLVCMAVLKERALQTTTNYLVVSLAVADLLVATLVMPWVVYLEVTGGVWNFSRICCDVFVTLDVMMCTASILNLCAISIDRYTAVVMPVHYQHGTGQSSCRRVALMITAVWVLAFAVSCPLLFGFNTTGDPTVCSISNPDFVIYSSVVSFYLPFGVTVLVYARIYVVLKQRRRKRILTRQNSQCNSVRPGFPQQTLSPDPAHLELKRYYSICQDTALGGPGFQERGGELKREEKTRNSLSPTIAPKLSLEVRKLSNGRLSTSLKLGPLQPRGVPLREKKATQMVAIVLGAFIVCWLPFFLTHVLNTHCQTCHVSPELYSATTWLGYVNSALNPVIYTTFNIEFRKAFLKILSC
Sequence of Beta-2 adrenergic receptor (Homo sapiens) (P07550 whole entry, looked up): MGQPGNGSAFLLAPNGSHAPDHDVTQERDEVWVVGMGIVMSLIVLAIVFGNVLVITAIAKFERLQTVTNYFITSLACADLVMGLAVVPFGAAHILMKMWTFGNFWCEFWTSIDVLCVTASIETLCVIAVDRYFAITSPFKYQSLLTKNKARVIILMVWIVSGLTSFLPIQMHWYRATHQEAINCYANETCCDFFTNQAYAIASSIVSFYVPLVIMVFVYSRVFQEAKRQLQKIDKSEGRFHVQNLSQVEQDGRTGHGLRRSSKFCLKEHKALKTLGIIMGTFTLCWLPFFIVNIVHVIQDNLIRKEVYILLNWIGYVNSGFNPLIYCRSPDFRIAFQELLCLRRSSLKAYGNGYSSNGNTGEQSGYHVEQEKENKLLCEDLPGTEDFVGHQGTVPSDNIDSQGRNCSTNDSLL
Sequence of 5-hydroxytryptamine receptor 2A (Homo sapiens) (P28223 whole entry): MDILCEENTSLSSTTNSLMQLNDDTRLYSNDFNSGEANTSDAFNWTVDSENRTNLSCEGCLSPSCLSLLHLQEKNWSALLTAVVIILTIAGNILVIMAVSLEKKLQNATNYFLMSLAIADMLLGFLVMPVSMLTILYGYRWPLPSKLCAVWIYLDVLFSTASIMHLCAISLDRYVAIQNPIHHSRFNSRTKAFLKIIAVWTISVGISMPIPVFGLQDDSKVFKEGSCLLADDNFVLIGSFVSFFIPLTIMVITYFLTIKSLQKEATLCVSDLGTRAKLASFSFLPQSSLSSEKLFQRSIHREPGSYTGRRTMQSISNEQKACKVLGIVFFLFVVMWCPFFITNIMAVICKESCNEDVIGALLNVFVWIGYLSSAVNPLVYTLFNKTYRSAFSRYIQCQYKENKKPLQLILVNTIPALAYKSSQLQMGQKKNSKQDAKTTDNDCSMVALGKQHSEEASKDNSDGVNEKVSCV
Sequence of D(1B) dopamine receptor (Homo sapiens) (P21918 whole entry): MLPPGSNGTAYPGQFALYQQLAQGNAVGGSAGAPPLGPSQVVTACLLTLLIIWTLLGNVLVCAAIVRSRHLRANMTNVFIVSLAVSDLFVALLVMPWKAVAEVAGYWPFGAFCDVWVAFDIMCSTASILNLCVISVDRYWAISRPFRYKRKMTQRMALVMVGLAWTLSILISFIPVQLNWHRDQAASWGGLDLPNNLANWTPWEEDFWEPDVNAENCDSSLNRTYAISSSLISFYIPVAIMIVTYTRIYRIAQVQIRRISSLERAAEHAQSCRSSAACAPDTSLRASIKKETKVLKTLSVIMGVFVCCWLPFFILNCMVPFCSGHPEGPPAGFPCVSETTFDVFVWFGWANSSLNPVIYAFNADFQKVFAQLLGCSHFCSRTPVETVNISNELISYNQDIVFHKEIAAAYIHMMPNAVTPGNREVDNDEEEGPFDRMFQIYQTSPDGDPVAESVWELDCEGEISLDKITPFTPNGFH
Sequence of Mu-type opioid receptor (Homo sapiens) (P35372 whole entry): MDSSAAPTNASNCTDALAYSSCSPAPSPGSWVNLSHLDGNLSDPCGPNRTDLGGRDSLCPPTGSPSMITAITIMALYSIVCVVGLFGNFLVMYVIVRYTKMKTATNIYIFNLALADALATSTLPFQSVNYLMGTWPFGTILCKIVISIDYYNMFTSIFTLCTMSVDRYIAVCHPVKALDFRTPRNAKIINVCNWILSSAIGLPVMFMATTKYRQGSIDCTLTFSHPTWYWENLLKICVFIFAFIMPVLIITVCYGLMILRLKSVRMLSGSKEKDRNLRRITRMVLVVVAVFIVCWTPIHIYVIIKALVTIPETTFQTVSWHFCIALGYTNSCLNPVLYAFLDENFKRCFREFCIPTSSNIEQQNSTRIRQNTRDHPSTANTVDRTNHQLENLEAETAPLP

For the compound `Cc1ccccc1/C=C/C(=O)N[C@@H](C)CO`, the values for the Time in the data set on Mus musculus [1], in the data set with Rattus norvegicus and in the data set on Mus musculus [3] were 0.25 h, 1 h and 0.5 h, respectively. Besides, the inhibition (commonly the drop in the measured response relative to a control, in per cent) in data set [2] turned out to be 1.4%; in data set [4], 0.9%; in data set [5], 10.3%; in data set [7], 0.4%; in data set [8], 7.2%; in data set [9], 1.2%. The inhibition in [12] was 8%; in data set [14], -5%; in [15], -8%; in [16], 3%. Further, the ED50 (in general, the dose that gives a 50% effect, or the effect in half of the subjects) in the data set with Mus musculus [6] came out at 42.3 mg/kg; in the data set with Mus musculus [13], 52.6 mg/kg. Besides, the selectivity ratio in [10] came out at 3.53. Besides, in [11], the TD50 (as a rule, the dose at which the toxic effect under study appears in half of the subjects) is over 500 mg/kg.

With `CCC(CO)NC(=O)/C=C/c1ccc(Cl)cc1` (stereo unspecified), the Time in the data set with Mus musculus [1] came to 0.25 h; in the data set with Rattus norvegicus, 0.5 h; in the data set on Mus musculus [3], 0.5 h. The inhibition was -1.2% in data set [2]; -2.5% in data set [4]; 19.3% in [5]; 23.3% in [7]; 18.2% in [8]; 48.3% in [9]. Further, the inhibition in data set [12] was 12.3%; in data set [14], 2.3%; in [15], 2.1%; in data set [16] it was 26.7%. The ED50 amounted to 92.9 mg/kg in the data set with Mus musculus [6] and 57.6 mg/kg in the data set on Mus musculus [13]. Moreover, the selectivity ratio in data set [10] was 3.65. The TD50 in data set [11] worked out at 277 mg/kg.

As to `CC(O)CNC(=O)/C=C/c1ccc(Cl)cc1` (stereo unspecified), the values for the Time in the data set on Mus musculus [1], with Rattus norvegicus and in the data set with Mus musculus [3] were 0.5 h, 0.5 h and 0.25 h, respectively. Moreover, the inhibition was 6.6% in data set [2]; -1.9% in data set [4]; 12.2% in data set [5]; 11.3% in data set [7]; 17.4% in [8]; 19.5% in data set [9]. Also, the inhibition in data set [12] was 13%; in [14], 1%; in [15], -9%; in [16], 2.3%. The ED50 worked out at 51.3 mg/kg in the data set on Mus musculus [6] and 42.3 mg/kg with Mus musculus [13]. Further, the selectivity ratio in data set [10] was 3.24. In addition, in [11], the TD50 was over 500 mg/kg.
